Results published in ChEMBL document CHEMBL5726224, “Aminoester derivatives” (2017).

Molecular target: Muscarinic acetylcholine receptor M3 (Homo sapiens, UniProt P20309)
Test: The assay is carried out in 96-well polypropylene plates in a volume of 250 μl. […] The final assay concentration of DMSO is 0.5% (v/v). The plates are sealed and incubated for 2 h at room temperature on an orbital shaker (slow speed). Membranes are harvested onto 96-well unifilter GF/C filter plates pre-treated with 0.5% polyethyleneimine (v/v), using a filter manifold, washed four times with 200 μl of assay buffer. The plates are dried before addition of 50 μl of microscint-0, sealed then read in a Trilux Microbeta scintillation counter. IC50 values are determined from competition curves using a non-linear curve fitting program. Ki values are calculated from IC50 values by the Cheng and Prusoff equation.

Muscarinic acetylcholine receptor M3, sequence (P20309 whole entry): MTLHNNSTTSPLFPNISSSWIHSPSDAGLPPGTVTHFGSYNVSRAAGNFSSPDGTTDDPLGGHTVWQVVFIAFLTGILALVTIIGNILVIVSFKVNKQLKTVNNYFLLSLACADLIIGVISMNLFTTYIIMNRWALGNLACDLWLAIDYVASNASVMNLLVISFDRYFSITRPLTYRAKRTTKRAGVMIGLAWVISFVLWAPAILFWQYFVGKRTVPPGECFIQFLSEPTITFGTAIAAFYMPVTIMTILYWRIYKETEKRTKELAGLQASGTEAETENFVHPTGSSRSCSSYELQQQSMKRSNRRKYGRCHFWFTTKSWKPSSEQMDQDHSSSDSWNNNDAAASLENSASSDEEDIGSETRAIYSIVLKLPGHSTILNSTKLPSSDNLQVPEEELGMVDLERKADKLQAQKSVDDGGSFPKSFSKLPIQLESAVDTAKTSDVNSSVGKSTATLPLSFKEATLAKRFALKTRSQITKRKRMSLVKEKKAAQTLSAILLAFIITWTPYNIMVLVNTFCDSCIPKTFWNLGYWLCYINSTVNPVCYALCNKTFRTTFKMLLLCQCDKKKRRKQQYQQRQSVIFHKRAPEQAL

| Compound | IC50 | Ki |
| --- | --- | --- |
| COc1ccc([C@H](Cc2c(Cl)c[n+]([O-])cc2Cl)OC(=O)c2ccc(CNC(CO)(C(=O)OC[C@H]3CCN(C)C3)c3ccccc3)s2)cc1OC (stereo partly specified) | < 1 nM |  |
| COc1ccc([C@H](Cc2c(Cl)c[n+]([O-])cc2Cl)OC(=O)c2ccc(CNC(CO)(C(=O)OC[C@@H]3CCN(C)C3)c3ccccc3)s2)cc1OC (stereo partly specified) | < 1 nM |  |
| COc1ccc([C@H](Cc2c(Cl)c[n+]([O-])cc2Cl)OC(=O)c2ccc(CNC(C(=O)OC[C@H]3CCN(C)C3)c3ccccc3)s2)cc1OC (stereo partly specified) |  | 0.59 nM |

Molecular target: 3',5'-cyclic-AMP phosphodiesterase 4B (Homo sapiens, UniProt Q07343)
Sequence (Q07343 whole entry): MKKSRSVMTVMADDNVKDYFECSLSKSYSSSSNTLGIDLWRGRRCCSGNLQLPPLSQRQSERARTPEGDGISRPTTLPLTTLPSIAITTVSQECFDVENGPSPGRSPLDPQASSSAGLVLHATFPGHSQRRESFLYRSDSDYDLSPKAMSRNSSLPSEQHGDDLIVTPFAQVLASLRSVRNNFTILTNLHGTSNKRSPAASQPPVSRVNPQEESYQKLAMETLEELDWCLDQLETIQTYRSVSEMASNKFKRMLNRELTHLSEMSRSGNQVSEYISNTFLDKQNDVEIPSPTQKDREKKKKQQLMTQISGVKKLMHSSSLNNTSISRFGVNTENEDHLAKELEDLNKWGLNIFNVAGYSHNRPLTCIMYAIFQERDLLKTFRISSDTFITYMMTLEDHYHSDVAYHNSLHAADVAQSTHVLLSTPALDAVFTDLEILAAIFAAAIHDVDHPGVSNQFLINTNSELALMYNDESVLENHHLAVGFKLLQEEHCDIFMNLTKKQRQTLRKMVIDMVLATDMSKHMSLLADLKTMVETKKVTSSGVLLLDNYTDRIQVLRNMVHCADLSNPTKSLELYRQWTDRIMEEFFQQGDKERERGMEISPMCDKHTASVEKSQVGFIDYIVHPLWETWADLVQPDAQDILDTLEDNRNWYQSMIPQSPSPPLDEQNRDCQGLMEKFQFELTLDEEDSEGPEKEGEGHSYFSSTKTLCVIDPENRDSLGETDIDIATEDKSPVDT
Test: HTRF Assay: PDE4B2 activity is detected using the LANCE Ultra cAMP homogeneous time resolved fluorescence resonance energy transfer (TR-FRET) assay from Perkin Elmer. The assay is based on the competition between the europium (Eu) chelate-labeled cAMP tracer and sample cAMP for binding sites on cAMP-specific monoclonal antibodies (mAb) labelled with the ULight¿ dye. The assay is carried out in 384-well low volume plates in a volume of 10 μl. Human recombinant PDE4B2 (80 pM) is incubated for 2 h with 3 nM cAMP in buffer containing 1×HBSS, 5 mM HEPES, 3 mM MgCl2, 0.1% BSA, pH 7.4 with or without test compounds. The enzymatic reactions are efficiently stopped by the addition of 500 μM IBMX present in the combined Stop/Detection buffer containing europium (Eu) chelate-labeled cAMP tracer and cAMP-specific monoclonal antibodies (mAb) labelled with the ULight¿ dye. […] IC50 values are determined from competition curves using a non-linear curve fitting program.

| Compound | IC50 |
| --- | --- |
| CCOc1cc(C(Cc2c(Cl)c[n+]([O-])cc2Cl)OC(=O)c2ccc(CNC(C(=O)OCC3CCN(C)CC3)c3ccccc3)s2)ccc1OC (stereo unspecified) | < 1 nM |
| COc1ccc([C@H](Cc2c(Cl)c[n+]([O-])cc2Cl)OC(=O)c2ccc(CNC(CO)(C(=O)OC[C@H]3CCN(C)C3)c3ccccc3)s2)cc1OC (stereo partly specified) | < 1 nM |
| COc1ccc([C@H](Cc2c(Cl)c[n+]([O-])cc2Cl)OC(=O)c2ccc(CNC(C(=O)OC[C@H]3CCCCN3C)c3ccccc3)s2)cc1OC (stereo partly specified) | < 1 nM |
| COc1ccc([C@H](Cc2c(Cl)c[n+]([O-])cc2Cl)OC(=O)c2ccc(CNC(C(=O)OCC3CCN(C)CC3)c3ccccc3F)s2)cc1OC (stereo partly specified) | < 1 nM |
| COc1ccc([C@H](Cc2c(Cl)c[n+]([O-])cc2Cl)OC(=O)c2ccc(CNC(C)(C(=O)OCC3CCN(C)CC3)c3ccccc3)s2)cc1OC (stereo partly specified) | < 1 nM |
| COc1ccc([C@H](Cc2c(Cl)c[n+]([O-])cc2Cl)OC(=O)c2ccc(CNC(C(=O)OCC3CCN(C)CC3)c3cccc(O)c3)s2)cc1OC (stereo partly specified) | < 1 nM |
| COc1ccc([C@H](Cc2c(Cl)c[n+]([O-])cc2Cl)OC(=O)c2ccc(CNC(C(=O)OC[C@H]3CCCN(C)C3)c3ccccc3)s2)cc1OC (stereo partly specified) | < 1 nM |
| COc1ccc(C(Cc2c(Cl)c[n+]([O-])cc2Cl)OC(=O)c2ccc(CNC(C(=O)OCC3CCN(C)CC3)c3ccccc3)s2)cc1OCC1CC1 (stereo unspecified) | < 1 nM |
